Structures can show the parent of a compound that is named as a salt. Where two headings read alike, the source gives them in different places.
Key:
Monoamine Oxidase A = biological target: T1, Monoamine Oxidase A (Rattus norvegicus, UniProt P21396); experiment: in vitro inhibition of monoamine oxidase assay, monoamine oxidase-A; assay type: biochemical, Male Wistar rats; conditions: rat brain mitochondrial monoamine oxidase; substrate [3H]-5-hydroxytryptamine 200 μM; 30 minutes at 37° C.
T1 construct: serves as the tissue source for mitochondrial monoamine oxidase; from tissue; host or cells: rat whole brain minus cerebellum, P2 mitochondrial pellet
T1 sequence (P21396 1-526): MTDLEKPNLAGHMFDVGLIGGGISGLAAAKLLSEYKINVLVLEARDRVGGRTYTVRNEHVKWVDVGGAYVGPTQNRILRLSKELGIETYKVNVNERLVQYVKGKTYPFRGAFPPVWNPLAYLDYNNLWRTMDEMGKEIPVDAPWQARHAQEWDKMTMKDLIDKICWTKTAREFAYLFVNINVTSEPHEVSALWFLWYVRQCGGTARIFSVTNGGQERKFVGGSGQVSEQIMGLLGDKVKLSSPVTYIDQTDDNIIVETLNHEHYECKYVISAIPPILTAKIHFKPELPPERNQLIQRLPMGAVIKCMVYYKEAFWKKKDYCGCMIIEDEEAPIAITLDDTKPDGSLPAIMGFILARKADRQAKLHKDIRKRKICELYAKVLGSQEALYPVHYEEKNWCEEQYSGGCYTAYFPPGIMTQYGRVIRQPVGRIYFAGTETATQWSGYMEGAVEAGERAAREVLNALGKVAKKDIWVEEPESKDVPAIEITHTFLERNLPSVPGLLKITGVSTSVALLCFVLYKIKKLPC
Protocol: In this assay, a modification of an assay described by M. V. Kindt, et al., Europ. J. Pharmnacol. 146: 313-318 1988.
1. Phosphate buffer (0.5 M), pH 7.4; 134.4 g dibasic sodium phosphate heptahydrate q.s. to 1 liter in distilled water (A) 17.3 g monobasic sodium phosphate q.s. to 250 ml in distilled water (B) Adjust pH of A to 7.4 by slowly adding B (volumes as needed) Dilute 1:10 in distilled water (0.05 M phosphate buffer, pH 7.4) 2. 0.25 M Sucrose (phosphate buffered): 21.4 g sucrose, q.s. to 250 nil with 0.05 M phosphate buffer a. serotonin creatine sulphate (5-hydroxytryptamine) is obtained from Sigma Chemical Company. A 5 mM stock solution ig made up in 0.01 N-hydrochloric acid. The solution is used to dilute the specific activity of the [^3H]-hydroxytryptamine. […]
b. [^3H]-5-hydroxytryptamine binoxalate (20-30 Ci/mmol) is obtained from New England Nuclear. c. Add 12 μl of [^3H]-5-hydroxytryptamine to 2 ml of the 5 mM 5-hydroxytryptamine solution. (Final amine concentration in the assay is 200 μM: see below.)
5. Equal amounts of monoamine oxidase-A (5-hydroxyttyptamine) and monoamine oxidase-B (β-phenethylamine) substrates are combined for simultaneously testing both monoamine oxidase types, i.e., mixed stock solution of 2.5 mM 5-hydroxytryptamine and 2.5 mM β-phenethylamine. 40 μl of this mixed solution gives a 200 μM final concentration of each amine in the assay. When testing only one monoamine oxidase type, the individual 5 mM stock solutions must be diluted 1:1 with distilled water prior to adding 40 μl to the incubation mixture; i.e., same 200 μM final amine concentration.
6. Stock solutions of test drugs are made up in appropriate vehicles and serially diluted to give final concentrations ranging from 10^−7 to 10^−3 molar in the assay. […]
Tubes are preincubated for 15 minutes at 37° C. and the assay is started by adding 40 μl of combined substrate ([^3H]-5-hydroxytryptamine and [^14C]-β-phenethylamin) at 15 second intervals. […] Tissue blank values are determined by adding the acid before the radioactive substrate. […] IC50 values are determined by log-probit analysis.

Monoamine Oxidase B = biological target: T2, Monoamine Oxidase B (Rattus norvegicus, UniProt P19643); experiment: in vitro inhibition of monoamine oxidase assay, monoamine oxidase-B; assay type: biochemical, Male Wistar rats; conditions: rat brain mitochondrial monoamine oxidase; substrate [14C]-β-phenethylamine 200 μM; 30 minutes at 37° C.
T2 construct: serves as the tissue source for mitochondrial monoamine oxidase; from tissue; host or cells: rat whole brain minus cerebellum, P2 mitochondrial pellet
T2 sequence (P19643 1-520): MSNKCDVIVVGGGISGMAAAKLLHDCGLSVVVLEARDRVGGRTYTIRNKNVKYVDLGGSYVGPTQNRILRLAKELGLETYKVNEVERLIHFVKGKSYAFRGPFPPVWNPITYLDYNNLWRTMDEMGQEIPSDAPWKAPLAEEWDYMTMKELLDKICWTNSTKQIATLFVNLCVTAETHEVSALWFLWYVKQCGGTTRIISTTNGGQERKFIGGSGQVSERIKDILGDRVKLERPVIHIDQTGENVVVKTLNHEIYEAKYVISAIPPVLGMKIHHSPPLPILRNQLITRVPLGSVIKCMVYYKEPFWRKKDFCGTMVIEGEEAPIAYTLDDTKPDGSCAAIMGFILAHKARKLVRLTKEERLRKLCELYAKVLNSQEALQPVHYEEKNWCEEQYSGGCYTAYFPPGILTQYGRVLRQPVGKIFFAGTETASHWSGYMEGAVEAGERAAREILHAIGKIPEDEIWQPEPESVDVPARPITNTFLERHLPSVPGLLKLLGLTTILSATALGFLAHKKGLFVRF
Protocol: Phosphate buffer (0.5 M), pH 7.4; 134.4 g dibasic sodium phosphate heptahydrate q.s. to 1 liter in distilled water (A) 17.3 g monobasic sodium phosphate q.s. to 250 ml in distilled water (B) Adjust pH of A to 7.4 by slowly adding B (volumes as needed) Dilute 1:10 in distilled water (0.05 M phosphate buffer, pH 7.4) 2. 0.25 M Sucrose (phosphate buffered): 21.4 g sucrose, q.s. to 250 nil with 0.05 M phosphate buffer a. β-phenethylamine is obtained from Sigma Chemical Company. A 5 mM stock solution is made up in 0.01 N-hydrochloric acid. The solution is used to dilute the specific activity of the [^14C]-β-phenethylamine.
b. β-[ethyl-1-^14C]-phenethylamine hydrochloride (40-50 mCi/mmol) is obtained from New England Nuclear. c. Add 12 μl of [^14C]-β-phenothylaamine to 2 ml of the 5 mM β-phenethylamine solution. (Final amine concentration in the assay is 200 μM: see below.) […]

Acetylcholinesterase = biological target: T3, Acetylcholinesterase (Rattus norvegicus, UniProt P37136); experiment: biochemical; design: species or system Male Wistar rats
T3 construct: corpora striata dissected free, weighted and homogenized in 19 volumes; from tissue; host or cells: rat corpus striatum homogenate
T3 sequence (P37136 32-614): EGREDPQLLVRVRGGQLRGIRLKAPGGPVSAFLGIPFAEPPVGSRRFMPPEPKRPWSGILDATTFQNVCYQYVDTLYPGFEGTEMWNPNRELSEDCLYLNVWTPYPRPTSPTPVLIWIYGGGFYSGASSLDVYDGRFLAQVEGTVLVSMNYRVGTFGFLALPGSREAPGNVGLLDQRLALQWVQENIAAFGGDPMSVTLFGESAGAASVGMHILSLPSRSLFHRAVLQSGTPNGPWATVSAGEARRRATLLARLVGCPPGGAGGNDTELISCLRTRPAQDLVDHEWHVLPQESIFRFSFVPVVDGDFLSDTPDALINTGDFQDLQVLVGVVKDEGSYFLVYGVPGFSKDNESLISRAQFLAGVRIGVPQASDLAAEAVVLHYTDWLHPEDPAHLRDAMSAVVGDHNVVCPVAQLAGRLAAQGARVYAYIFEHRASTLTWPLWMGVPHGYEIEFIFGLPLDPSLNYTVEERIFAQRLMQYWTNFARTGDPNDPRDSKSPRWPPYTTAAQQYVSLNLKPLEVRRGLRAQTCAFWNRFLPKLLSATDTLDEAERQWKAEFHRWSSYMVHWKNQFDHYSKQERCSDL

SMILES: COc1ccc(NN=C2CCCC23CCNCC3)cc1 (as salt: hydrochloride) [8-Azaspiror4,5]decane-1-[N′-(4-methoxy)phenyl]hydrazone hydrochloride]
- melting point: 252 to 253 °C

SMILES: COc1cccc(CN2CCC3(CCc4c3n(C)c3ccccc43)CC2)c1 [1,4-Dihydro-1′-(3-methoxyphenyl)methyl-4-methylspiro[cyclopent[b]indole-3(2H), 4′piperidine]]
- IC50 (Monoamine Oxidase A): 51.2 µM

SMILES: COc1ccc(CN2CCC3(CCc4c3n(C)c3ccccc43)CC2)cc1 [1,4-Dihydro-1′-(4-methoxyphenyl)methyl-4-methylspiro[cyclopent[b]indole-3(2H), 4′-piperidine]]
- IC50 (Monoamine Oxidase B): 125 µM
- IC50 (Acetylcholinesterase; read-out: Inhibition of Acetylcholinesterase Activity IC50): 65.2 µM
- IC50 (Monoamine Oxidase A): 98.6 µM

SMILES: Cn1c2c(c3ccccc31)CCC21CCNCC1 [1,4-Dihydro-4-methylspiro[cyclopent[b]indole-3(2H), 4′-piperidine]hydrochloride]
- IC50 (Acetylcholinesterase): 84.1 µM

SMILES: CN(C)C(=O)Oc1ccc2c(c1)c1c(n2C)C2(CCNCC2)CC1 [1,4-Dihydro-7-dimethylaminocarbonyloxy-4-methylspirorcyclopentfblindole-3(2H), 4′-piperidine]hemihydrate]
- IC50 (Acetylcholinesterase): 64 µM

SMILES: Cn1c2c(c3cc(O)ccc31)CCC21CCN(Cc2ccccc2)CC1 [1,4-Dihydro-7-hydroxy-4-methyl-1′-phenylmethylspiro[cyclopent[b]indole-3(2H), 4′-piperidine hydrochloride]
- IC50 (Acetylcholinesterase): 20.4 µM

SMILES: COc1ccc(NN=C2CCCC23CCNCC3)cc1 [8-Azaspiror4,5]decane-1-[N′-(4-methoxy)phenyl]hydrazone hydrochloride]
- IC50 (Monoamine Oxidase B): 3.7 µM
- IC50 (Monoamine Oxidase A): 37.2 µM
